In PMC7948456, “Kinetics of cytochrome P450 3A4 inhibition by heterocyclic drugs defines a general sequential multistep binding process” (The Journal of Biological Chemistry, 2020):

Assays:
[1] = target: T1, P450 3A4 (Homo sapiens, UniProt P08684, form not given); assay: in vitro; settings: P450 3A4 reconstituted with cholate/phospholipid mixture, probe testosterone 6β-hydroxylation, 25 μM
[2] = target: T1, P450 3A4; assay: in vitro; settings: P450 3A4 reconstituted with cholate/phospholipid mixture, probe 7-OBz quinoline (7-benzoyl quinoline) O-debenzylation, 20 μM
Description: For catalytic assays, P450 3A4 was reconstituted with a cholate/phospholipid mixture as described previously ([42], [43]). In general, reactions were initiated either with NADPH (1 mM) or an NADPH-generating system ([76]).
Water was added, and 7-OBz quinoline (in ethanol) was aliquoted at 0.5% (v/v) to a final concentration of 20 μM. Inhibitors (in dimethyl sulfoxide) were added (final concentration 0.5% dimethyl sulfoxide, v/v) for their desired final concentrations (0–10 μM), bringing the total organic solvent composition of the reaction to 1% (v/v). Preincubations proceeded at 37 °C for 5 min and were initiated with the addition of the NADPH-generating system ([76]). Reactions (8 min) were quenched with 100 μl of cold CH3CN on ice and centrifuged at 2000g for 10 min to pellet precipitated protein. […] The product 7-OH quinoline was detected using a Waters Acuity fluorescence detector with excitation and emission wavelengths set at 420 and 503 nm, respectively.

[3] = target: T2, P450 3A4 (Homo sapiens, UniProt P08684); assay: Inhibitor-binding kinetics (stopped-flow absorbance, SVD analysis); settings: P450 3A4 2 μM
Excerpt: Equal volumes of buffered solutions of P450 3A4 and ligand were mixed, with a nominal dead time of 2 ms. Data were collected in the Show Pre-trigger Mode, with a short amount of data from the previous run (completed reaction) shown prior to mixing. […] From the accumulated spectra from each individual experiment (5–10 shots per concentration), generally the A420 data were subtracted from the A390 data points or A390 data were subtracted from the A425 data points, and the difference (ΔA390 − A420 or ΔA425 − A390 versus time) traces were averaged using the OLIS GlobalWorks software and fit to first-order fits (or used in SVD analysis; Figs. 9 and S7–S10).

[4] = target: T2, P450 3A4; settings: inhibitor 0.02 μM
Description: Assays for the kinetics of inhibition were done using an OLIS RSM-1000 stopped-flow instrument (On-Line Instrument Systems) in the fluorescence mode (150 W xenon lamp), with the excitation monochromator set at 410 nm and using a >515 nm Oriel long-pass filter (Newport) with the sample photomultiplier tube. The slit widths were 6.32 mm, and the sample and reference voltages of the photomultiplier tubes were 700 and 350 V, respectively. Reactions were done at 23 °C for 180 s.
One syringe contained the P450 3A4 system (100 nM P450 3A4, 200 nM POR, and 100 nM cytochrome b5) along with the other components of a “5×” mixture (potassium Hepes (pH 7.4), reduced glutathione, sodium cholate, and phospholipid mixture) combined with the 5× buffer mixture (Hepes, MgCl2, and reduced glutathione) ([42]), plus NADPH and the inhibitor compound. Fluorescence data were collected for 3 min (at 23 °C) and moved to Excel, Prism, and KinTek Explorer programs for analysis.

[5] = target: T2, P450 3A4; settings: P450 enzyme system + NADPH, UPLC-MS
[6] = target: T2, P450 3A4; settings: equimolar inhibitor (50 nM), 160 μM 7-OBz quinoline added, 23 °C
[7] = inhibitor 15 μM, three-species 1→2→3 model

T1 sequence (P08684 13-503): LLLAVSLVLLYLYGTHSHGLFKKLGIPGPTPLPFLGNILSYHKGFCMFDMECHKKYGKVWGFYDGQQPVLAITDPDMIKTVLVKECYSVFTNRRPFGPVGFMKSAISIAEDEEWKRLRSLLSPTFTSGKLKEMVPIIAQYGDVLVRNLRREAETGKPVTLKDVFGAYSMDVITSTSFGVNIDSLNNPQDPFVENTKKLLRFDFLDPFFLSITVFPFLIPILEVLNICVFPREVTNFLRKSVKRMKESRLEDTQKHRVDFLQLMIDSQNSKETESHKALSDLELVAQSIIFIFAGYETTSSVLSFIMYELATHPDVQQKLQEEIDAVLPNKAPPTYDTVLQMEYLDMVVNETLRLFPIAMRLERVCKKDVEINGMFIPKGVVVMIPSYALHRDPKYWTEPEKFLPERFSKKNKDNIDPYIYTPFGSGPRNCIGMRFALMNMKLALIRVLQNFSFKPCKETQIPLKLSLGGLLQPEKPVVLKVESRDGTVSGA
T1 sequence (P00388 2-678 partner): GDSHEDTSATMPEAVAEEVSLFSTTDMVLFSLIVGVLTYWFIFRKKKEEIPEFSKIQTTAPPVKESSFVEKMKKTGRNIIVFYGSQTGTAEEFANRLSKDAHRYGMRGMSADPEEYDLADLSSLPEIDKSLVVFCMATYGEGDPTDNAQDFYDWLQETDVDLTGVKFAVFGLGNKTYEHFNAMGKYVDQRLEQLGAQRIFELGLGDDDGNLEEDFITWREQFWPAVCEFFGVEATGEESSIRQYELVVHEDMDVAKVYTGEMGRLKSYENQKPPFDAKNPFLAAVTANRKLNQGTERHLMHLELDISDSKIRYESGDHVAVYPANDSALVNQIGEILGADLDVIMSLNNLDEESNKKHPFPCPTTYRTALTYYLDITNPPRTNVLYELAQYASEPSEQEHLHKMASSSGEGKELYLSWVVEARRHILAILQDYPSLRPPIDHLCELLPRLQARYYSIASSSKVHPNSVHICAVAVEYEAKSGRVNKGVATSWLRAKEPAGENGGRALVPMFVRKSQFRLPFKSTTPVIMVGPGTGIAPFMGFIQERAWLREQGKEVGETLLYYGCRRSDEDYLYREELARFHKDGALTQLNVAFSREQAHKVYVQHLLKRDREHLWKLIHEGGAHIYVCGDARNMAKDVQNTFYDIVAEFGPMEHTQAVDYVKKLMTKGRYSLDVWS
T1 sequence (P00167 2-134 partner): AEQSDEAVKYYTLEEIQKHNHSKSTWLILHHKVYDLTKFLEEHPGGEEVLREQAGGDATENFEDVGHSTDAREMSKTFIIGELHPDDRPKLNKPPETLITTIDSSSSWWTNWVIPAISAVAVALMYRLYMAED
T2 sequence (P08684 13-503): as the sequence (P08684 13-503) above
T2 sequence (P00388 2-678 partner): as the sequence (P00388 2-678 partner) above
T2 sequence (P00167 2-134 partner): as the sequence (P00167 2-134 partner) above

## CCC(C)n1ncn(-c2ccc(N3CCN(c4ccc(OCC5COC(Cn6cncn6)(c6ccc(Cl)cc6Cl)O5)cc4)CC3)cc2)c1=O (stereo not shown) [Itraconazole]
[1]
  IC50 at 15 min: 1490 nM
[2]
  IC50 at 8 min: 2020 nM

## Clc1ccccc1C(c1ccccc1)(c1ccccc1)n1ccnc1 [Clotrimazole]
[3]; [7]
  Spectral binding (SVD) k1: 0.092 ± 0.01 s
  Spectral binding (SVD) k2: 0.016 ± 0.005 s⁻¹
[3]; ligand 4 μM final
  kobs, initial rate of binding (ΔA390 − A425): 235 s⁻¹
[4]
  Onset of 7-OBz quinoline O-debenzylation inhibition, Rate (k1): 0.39 ± 0.03 s⁻¹
[1]
  IC50 at 15 min: 110 nM
[5]
  substrate for P450 3A4 (product formation): is a substrate as well as an inhibitor of P450 3A4
[6]
  lag phase in recovery of catalytic activity: ~45 s
[2]
  IC50 at 8 min: 110 nM
